Reference: US20240368177A1, “5-AMINO-6,8-DIHYDRO-1H-FURO[3,4-d]PYRROLO[3,2-b]PYRIDINE-2-CARBOXAMIDE DERIVATIVES AS MTA-COOPERATIVE INHIBITORS OF PRMT5” (BeiGene Switzerland GmbH, priority 2023, published 2024)

Legend:
HCT116-mock-RNA-KO = assay: Cell killing in HCT116 isogenic pair (Cell Titer-Glo viability), mock knock-out cells with MTAP wildtype genotype; format: cell-based, human; details: 6 days incubation, 0-10 μM
Method in brief: (§1)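 Viability was read by CellTiter-Glo luminescence after 6 days of compound treatment (0–10 μM final, 37° C, 5% CO2), and IC50 values were fitted. The isogenic HCT116 pair, MTAP-KO clone versus mock-KO MTAP-wildtype, was grown in RPMI 1640 plus 10% FBS and seeded the day before.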

HCT116-MTAP-KO = assay: Cell killing in HCT116 isogenic pair (Cell Titer-Glo viability), MTAP knock-out cells; format: cell-based, human; details: 6 days incubation, 0-10 μM, * = more than 50% viability inhibition at tested concentration without a full curve
Method in brief: as §1

SMILES: C[C@@H](c1c(F)cc(Br)cc1F)N(C)C(=O)c1cc2nc(N)c3c(c2[nH]1)COC3 [Example 122, (S)-5-amino-N-(1-(4-bromo-2,6-difluorophenyl)ethyl)-N-methyl-6,8-dihydro-1H-furo[3,4-d]pyrrolo[3,2-b]pyridine-2-carboxamide]
- IC50 (HCT116-mock-RNA-KO; Homo sapiens, HCT-116, 144 h): 5780 nM
- IC50 (HCT116-MTAP-KO; Homo sapiens, HCT-116, 144 h): 2220 nM

SMILES: C[C@H](c1c(F)cc(Br)cc1F)N(C)C(=O)c1cc2nc(N)c3c(c2[nH]1)COC3 [Example 123, (R)-5-amino-N-(1-(4-bromo-2,6-difluorophenyl)ethyl)-N-methyl-6,8-dihydro-1H-furo[3,4-d]pyrrolo[3,2-b]pyridine-2-carboxamide]
- IC50 (HCT116-mock-RNA-KO; Homo sapiens, HCT-116, 144 h): 4910 nM
- IC50 (HCT116-MTAP-KO; Homo sapiens, HCT-116, 144 h): 46 nM

SMILES: CCN(C(=O)c1cc2nc(N)c3c(c2[nH]1)CO[C@@H]3C)[C@H](C)c1ccc(Br)cc1F [Example 124, (R)-5-amino-N—((R)-1-(4-bromo-2-fluorophenyl)ethyl)-N-ethyl-6-methyl-6,8-dihydro-1H-furo[3,4-d]pyrrolo[3,2-b]pyridine-2-carboxamide]
- IC50 (HCT116-mock-RNA-KO; Homo sapiens, HCT-116, 144 h): 2470 nM
- IC50 (HCT116-MTAP-KO; Homo sapiens, HCT-116, 144 h): 22 nM

SMILES: CCN(C(=O)c1cc2nc(N)c3c(c2[nH]1)CO[C@@H]3C)[C@@H](C)c1ccc(Br)cc1F [Example 125]
- IC50 (HCT116-mock-RNA-KO): 7460 nM
- IC50 (HCT116-MTAP-KO): 365 nM

SMILES: CCN(C(=O)c1cc2nc(N)c3c(c2[nH]1)CO[C@@H]3C)[C@H](C)c1ccc(C(F)(F)F)cc1F [Example 126, (R)-5-amino-N-ethyl-N—((R)-1-(2-fluoro-4-(trifluoromethyl)phenyl)ethyl)-6-methyl-6,8-dihydro-1H-furo[3,4-d]pyrrolo[3,2-b]pyridine-2-carboxamide]
- IC50 (HCT116-mock-RNA-KO; Homo sapiens, HCT-116, 144 h): 1720 nM
- IC50 (HCT116-MTAP-KO; Homo sapiens, HCT-116, 144 h): 11 nM

SMILES: CCN(C(=O)c1cc2nc(N)c3c(c2[nH]1)CO[C@@H]3C)[C@@H](C)c1ccc(C(F)(F)F)cc1F [Example 127, (R)-5-amino-N-ethyl-N—((S)-1-(2-fluoro-4-(trifluoromethyl)phenyl)ethyl)-6-methyl-6,8-dihydro-1H-furo[3,4-d]pyrrolo[3,2-b]pyridine-2-carboxamide]
- IC50 (HCT116-mock-RNA-KO; Homo sapiens, HCT-116, 144 h): 5900 nM
- IC50 (HCT116-MTAP-KO; Homo sapiens, HCT-116, 144 h): 236 nM

SMILES: CCN(C(=O)c1cc2nc(N)c3c(c2[nH]1)CO[C@@H]3C)[C@H](C)c1ncc(Br)cc1F [Example 128, (R)-5-amino-N—((R)-1-(5-bromo-3-fluoropyridin-2-yl)ethyl)-N-ethyl-6-methyl-6,8-dihydro-1H-furo[3,4-d]pyrrolo[3,2-b]pyridine-2-carboxamide]
- IC50 (HCT116-mock-RNA-KO; Homo sapiens, HCT-116, 144 h): 1050 nM
- IC50 (HCT116-MTAP-KO; Homo sapiens, HCT-116, 144 h): 6 nM

SMILES: CCN(C(=O)c1cc2nc(N)c3c(c2[nH]1)CO[C@@H]3C)[C@@H](C)c1ncc(Br)cc1F [Example 129, (R)-5-amino-N—((S)-1-(5-bromo-3-fluoropyridin-2-yl)ethyl)-N-ethyl-6-methyl-6,8-dihydro-1H-furo[3,4-d]pyrrolo[3,2-b]pyridine-2-carboxamide]
- IC50 (HCT116-mock-RNA-KO; Homo sapiens, HCT-116, 144 h): > 10000 nM
- IC50 (HCT116-MTAP-KO; Homo sapiens, HCT-116, 144 h): 1180 nM

SMILES: CCN(C(=O)c1cc2nc(N)c3c(c2[nH]1)CO[C@@H]3C)[C@H](C)c1ncc(C(F)(F)F)cc1F [Example 130, (R)-5-amino-N-ethyl-N—((R)-1-(3-fluoro-5-(trifluoromethyl)pyridin-2-yl)ethyl)-6-methyl-6,8-dihydro-1H-furo[3,4-d]pyrrolo[3,2-b]pyridine-2-carboxamide]
- IC50 (HCT116-mock-RNA-KO; Homo sapiens, HCT-116, 144 h): 1090 nM
- IC50 (HCT116-MTAP-KO; Homo sapiens, HCT-116, 144 h): 8.5 nM

SMILES: CCN(C(=O)c1cc2nc(N)c3c(c2[nH]1)CO[C@@H]3C)[C@@H](C)c1ncc(C(F)(F)F)cc1F [Example 131, (R)-5-amino-N-ethyl-N—((S)-1-(3-fluoro-5-(trifluoromethyl)pyridin-2-yl)ethyl)-6-methyl-6,8-dihydro-1H-furo[3,4-d]pyrrolo[3,2-b]pyridine-2-carboxamide]
- IC50 (HCT116-mock-RNA-KO; Homo sapiens, HCT-116, 144 h): > 10000 nM
- IC50 (HCT116-MTAP-KO; Homo sapiens, HCT-116, 144 h): 1830 nM

SMILES: CCN(C(=O)c1cc2nc(N)c3c(c2[nH]1)COC3)[C@H](C)c1ncc(N2CCOCC2)cc1F [Example 132, 5-amino-N-ethyl-N-(1-(3-fluoro-5-morpholinopyridin-2-yl)ethyl)-6,8-dihydro-1H-furo[3,4-d]pyrrolo[3,2-b]pyridine-2-carboxamide]
- IC50 (HCT116-mock-RNA-KO; Homo sapiens, HCT-116, 144 h): > 10000 nM
- IC50 (HCT116-MTAP-KO; Homo sapiens, HCT-116, 144 h): 45 nM

SMILES: CCN(C(=O)c1cc2nc(N)c3c(c2[nH]1)COC3)[C@H](C)c1ccc(Br)cc1F [Example 133, (R)-5-amino-N-(1-(4-bromo-2-fluorophenyl)ethyl)-N-ethyl-6,8-dihydro-1H-furo[3,4-d]pyrrolo[3,2-b]pyridine-2-carboxamide]
- IC50 (HCT116-mock-RNA-KO; Homo sapiens, HCT-116, 144 h): 1340 nM
- IC50 (HCT116-MTAP-KO; Homo sapiens, HCT-116, 144 h): 13 nM

SMILES: CCN(C(=O)c1cc2nc(N)c3c(c2[nH]1)COC3)[C@@H](C)c1ccc(Br)cc1F [Example 134, (S)-5-amino-N-(1-(4-bromo-2-fluorophenyl)ethyl)-N-ethyl-6,8-dihydro-1H-furo[3,4-d]pyrrolo[3,2-b]pyridine-2-carboxamide]
- IC50 (HCT116-mock-RNA-KO; Homo sapiens, HCT-116, 144 h): 2880 nM
- IC50 (HCT116-MTAP-KO; Homo sapiens, HCT-116, 144 h): 336 nM

SMILES: CCN(C(=O)c1cc2nc(N)c3c(c2[nH]1)COC3)[C@H](C)c1ccc(C(F)(F)F)cc1F [Example 135, (R)-5-amino-N-ethyl-N-(1-(2-fluoro-4-(trifluoromethyl)phenyl)ethyl)-6,8-dihydro-1H-furo[3,4-d]pyrrolo[3,2-b]pyridine-2-carboxamide]
- IC50 (HCT116-mock-RNA-KO; Homo sapiens, HCT-116, 144 h): 2130 nM
- IC50 (HCT116-MTAP-KO; Homo sapiens, HCT-116, 144 h): 26 nM

SMILES: CCN(C(=O)c1cc2nc(N)c3c(c2[nH]1)COC3)[C@@H](C)c1ccc(C(F)(F)F)cc1F [Example 136, (S)-5-amino-N-ethyl-N-(1-(2-fluoro-4-(trifluoromethyl)phenyl)ethyl)-6,8-dihydro-1H-furo[3,4-d]pyrrolo[3,2-b]pyridine-2-carboxamide]
- IC50 (HCT116-mock-RNA-KO; Homo sapiens, HCT-116, 144 h): 3520 nM
- IC50 (HCT116-MTAP-KO; Homo sapiens, HCT-116, 144 h): 245 nM

SMILES: C[C@H](c1ccc(Br)cc1F)N(C)C(=O)c1cc2nc(N)c3c(c2[nH]1)COC3 [Example 137, (R)-5-amino-N-(1-(4-bromo-2-fluorophenyl)ethyl)-N-methyl-6,8-dihydro-1H-furo[3,4-d]pyrrolo[3,2-b]pyridine-2-carboxamide]
- IC50 (HCT116-mock-RNA-KO; Homo sapiens, HCT-116, 144 h): 3020 nM
- IC50 (HCT116-MTAP-KO; Homo sapiens, HCT-116, 144 h): 44 nM

SMILES: C[C@@H](c1ccc(Br)cc1F)N(C)C(=O)c1cc2nc(N)c3c(c2[nH]1)COC3 [Example 138, (S)-5-amino-N-(1-(4-bromo-2-fluorophenyl)ethyl)-N-methyl-6,8-dihydro-1H-furo[3,4-d]pyrrolo[3,2-b]pyridine-2-carboxamide]
- IC50 (HCT116-mock-RNA-KO; Homo sapiens, HCT-116, 144 h): 3240 nM
- IC50 (HCT116-MTAP-KO; Homo sapiens, HCT-116, 144 h): 913 nM

SMILES: C[C@H](c1ccc(Br)cc1F)N(C)C(=O)c1cc2nc(N)c3c(c2[nH]1)CO[C@@H]3C [Example 139, (R)-5-amino-N—((R)-1-(4-bromo-2-fluorophenyl)ethyl)-N,6-dimethyl-6,8-dihydro-1H-furo[3,4-d]pyrrolo[3,2-b]pyridine-2-carboxamide]
- IC50 (HCT116-mock-RNA-KO; Homo sapiens, HCT-116, 144 h): 2400 nM
- IC50 (HCT116-MTAP-KO; Homo sapiens, HCT-116, 144 h): 12 nM

SMILES: C[C@H]1OCc2c1c(N)nc1cc(C(=O)N(C)[C@@H](C)c3ccc(Br)cc3F)[nH]c21 [Example 140, (R)-5-amino-N—((S)-1-(4-bromo-2-fluorophenyl)ethyl)-N,6-dimethyl-6,8-dihydro-1H-furo[3,4-d]pyrrolo[3,2-b]pyridine-2-carboxamide]
- IC50 (HCT116-mock-RNA-KO; Homo sapiens, HCT-116, 144 h): 3030 nM
- IC50 (HCT116-MTAP-KO; Homo sapiens, HCT-116, 144 h): 270 nM

SMILES: Nc1nc2cc(C(=O)N3CCOC[C@@H]3c3ccc(C(F)(F)F)cc3)[nH]c2c2c1COC2 [Example 141, (S)-(5-amino-6,8-dihydro-1H-furo[3,4-d]pyrrolo[3,2-b]pyridin-2-yl)(3-(4-(trifluoromethyl)phenyl)morpholino)methanone]
- IC50 (HCT116-mock-RNA-KO; Homo sapiens, HCT-116, 144 h): > 10000 nM
- IC50 (HCT116-MTAP-KO; Homo sapiens, HCT-116, 144 h): 149 nM

SMILES: C[C@H](c1ncc(C2CC2)cc1F)N(C)C(=O)c1cc2nc(N)c3c(c2[nH]1)CO[C@@H]3C [Example 142, (R)-5-amino-N—((R)-1-(5-cyclopropyl-3-fluoropyridin-2-yl)ethyl)-N,6-dimethyl-6,8-dihydro-1H-furo[3,4-d]pyrrolo[3,2-b]pyridine-2-carboxamide]
- IC50 (HCT116-mock-RNA-KO; Homo sapiens, HCT-116, 144 h): 477 nM
- IC50 (HCT116-MTAP-KO; Homo sapiens, HCT-116, 144 h): 2.6 nM
